From patent publication US20250034185A1 (priority 2021, published 2025)
Throughout, for P5P formed: test concentration or dose not given here.

Each molecule was assayed on plasma enzymes. Conditions: Sprague Dawley, rat.
In the case of `Cc1ncc(COP(=O)(N[C@@H](C)C(=O)OC(C)C)Oc2ccccc2)c(CN)c1O` (stereo partly drawn) [Compound 14, (2S)-Isopropyl 2-(((4-(aminomethyl)-5-hydroxy-6-methylpyridin-3-yl)methoxy)(phenoxy)phosphorylamino)propanoate], the P5P formed is reported as 0 µM and the “relative P5P formed” value is reported as 0.0%. `CCC(CC)COC(=O)[C@H](C)NP(=O)(OCc1cnc(C)c(O)c1CN)Oc1ccccc1` (stereo partly drawn) [Compound 14i, (2S)-2-Ethylbutyl 2-(((4-(aminomethyl)-5-hydroxy-6-methylpyridin-3-yl)methoxy)(phenoxy)phosphorylamino)propanoate] was tested, and the P5P formed was 0.17 µM and the “relative P5P formed” value was 4.0%. `Cc1ncc(COP(=O)(NCC(=O)OC(C)C)Oc2ccccc2)c(CN)c1O` (stereo not shown) [Compound 14ii, Isopropyl 2-(((4-(aminomethyl)-5-hydroxy-6-methylpyridin-3-yl)methoxy)(phenoxy)phosphorylamino)acetate] was tested, and the P5P formed was 0 µM and the “relative P5P formed” value was 0.0%. `Cc1ncc(COP(=O)(N[C@@H](C)C(=O)OCc2ccccc2)Oc2ccccc2)c(CN)c1O` (stereo partly drawn) [Compound 14iii, (2S)-Benzyl 2-(((4-(aminomethyl)-5-hydroxy-6-methylpyridin-3-yl)methoxy)(phenoxy)phosphorylamino)propanoate] was tested, and the P5P formed was 0.7 µM and the “relative P5P formed” value was 6.7%. `Cc1ncc(COP(=O)(N[C@@H](C)C(=O)OC(C)C)Oc2cccc3ccccc23)c(CN)c1O` (stereo partly drawn) [Compound 14ix, (2S)-Isopropyl 2-(((4-(aminomethyl)-5-hydroxy-6-methylpyridin-3-yl)methoxy)(naphthalen-1-yloxy)phosphorylamino)propanoate] was tested, and the P5P formed was 0.4 µM and the “relative P5P formed” value was 6.3%. For `Cc1ncc(COP(=O)(N[C@@H](C)C(=O)OC(C)C)Oc2ccc(Cl)cc2)c(CN)c1O` (stereo partly drawn) [Compound 14v, (2S)-Isopropyl 2-(((4-(aminomethyl)-5-hydroxy-6-methylpyridin-3-yl)methoxy)(4-chlorophenoxy)phosphorylamino)propanoate], the P5P formed was 0.3 µM and the “relative P5P formed” value was 11.1%. `Cc1ccc(OC(=O)[C@H](C)NP(=O)(OCc2cnc(C)c(O)c2CN)Oc2ccccc2)cc1` (stereo partly drawn) [Compound 14vii, (2S)-p-Tolyl 2-(((4-(aminomethyl)-5-hydroxy-6-methylpyridin-3-yl)methoxy)(phenoxy)phosphorylamino)propanoate] was tested, and the P5P formed was 0.5 µM and the “relative P5P formed” value was 12.2%. In the case of `[2H]C([2H])([2H])C(OC(=O)[C@H](C)NP(=O)(OCc1cnc(C)c(O)c1CN)Oc1ccccc1)C([2H])([2H])[2H]` (stereo partly shown) [Compound 14viii], the P5P formed is reported as 0.3 µM and the “relative P5P formed” value is reported as 17.6%. `Cc1ncc(COP(=O)(N[C@@H](C)C(=O)OC2CCCC2)Oc2ccccc2)c(CN)c1O` (stereo partly drawn) [Compound 14x, (2S)-Cyclopentyl 2-(((4-(aminomethyl)-5-hydroxy-6-methylpyridin-3-yl)methoxy)(phenoxy)phosphorylamino)propanoate] was tested, and the P5P formed was 0.3 µM and the “relative P5P formed” value was 11.1%. With `Cc1ncc(COP(=O)(N[C@@H](C)C(=O)OC(C)C)Oc2ccc(OC(F)(F)F)cc2)c(CN)c1O` (stereo partly drawn) [Compound 14xi, (2S)-Isopropyl 2-(((4-(aminomethyl)-5-hydroxy-6-methylpyridin-3-yl)methoxy)(4-(trifluoromethoxy)phenoxy)phosphorylamino)propanoate] the P5P formed was 0.3 µM and the “relative P5P formed” value was 17.6%. With `Cc1ncc(COP(=O)(N[C@@H](C)C(=O)Oc2ccc3c(c2)CCCC3)Oc2ccccc2)c(CN)c1O` (stereo partly drawn) [Compound 14xii, (2S)-5,6,7,8-Tetrahydronaphthalen-2-yl 2-(((4-(aminomethyl)-5-hydroxy-6-methylpyridin-3-yl)methoxy)(phenoxy)phosphorylamino)propanoate] the P5P formed was 0.2 µM and the “relative P5P formed” value was 5.3%. With `[2H]C([2H])(NP(=O)(OCc1cnc(C)c(O)c1CN)Oc1ccccc1)C(=O)OC(C([2H])([2H])[2H])C([2H])([2H])[2H]` (stereo not shown) [Compound 14xiii] the P5P formed was 0.3 µM and the “relative P5P formed” value was 17.6%. In the case of `Cc1ncc(COP(=O)(N[C@@H](Cc2ccc(OCc3ccccc3)cc2)C(=O)OC(C)C)Oc2ccccc2)c(CN)c1O` (stereo partly drawn) [Compound 14xiv, (2S)-Isopropyl 2-(((4-(aminomethyl)-5-hydroxy-6-methylpyridin-3-yl)methoxy)(phenoxy)phosphorylamino)-3-(4-(benzyloxy)phenyl)propanoate], the P5P formed is reported as 0.3 µM and the “relative P5P formed” value is reported as 8.3%. With `Cc1ncc(COP(=O)(N[C@@H](C)C(=O)OC2CCN(C)CC2)Oc2ccccc2)c(CN)c1O` (stereo partly drawn) [Compound 14xv, (2S)-1-Methylpiperidin-4-yl 2-(((4-(aminomethyl)-5-hydroxy-6-methylpyridin-3-yl)methoxy)(phenoxy)phosphorylamino)propanoate] the P5P formed was 0.3 µM and the “relative P5P formed” value was 10.3%. For `Cc1ccc(OP(=O)(N[C@@H](C)C(=O)OC(C)C)OCc2cnc(C)c(O)c2CN)cc1` (stereo partly drawn) [Compound 14xvi, (2S)-Isopropyl 2-(((4-(aminomethyl)-5-hydroxy-6-methylpyridin-3-yl)methoxy)(p-tolyloxy)phosphorylamino)propanoate], the P5P formed was 0.3 µM and the “relative P5P formed” value was 10.3%. For `Cc1ncc(COP(=O)(N[C@@H](C)C(=O)Oc2ccc(Cl)cc2)Oc2ccccc2)c(CN)c1O` (stereo partly drawn) [Compound 14xvii, (2S)-4-Chlorophenyl 2-(((4-(aminomethyl)-5-hydroxy-6-methylpyridin-3-yl)methoxy)(phenoxy)phosphorylamino)propanoate], the P5P formed was 6.6 µM and the “relative P5P formed” value was 194.1%. For `Cc1ncc(COP(=O)(N[C@@H](C)C(=O)OC(C)C)Oc2ccc(Br)cc2F)c(CN)c1O` (stereo partly drawn) [Compound 14xviii, (2S)-Isopropyl 2-(((4-(aminomethyl)-5-hydroxy-6-methylpyridin-3-yl)methoxy)(4-bromo-2-fluorophenoxy)phosphorylamino)propanoate], the P5P formed was 2.4 µM and the “relative P5P formed” value was 96.0%. With `Cc1ncc(CO[P@@](=O)(N[C@@H](C)C(=O)OC(C)C)Oc2ccccc2)c(CO)c1O` [Compound 15i, (S)-Isopropyl 2-((S)-((5-hydroxy-4-(hydroxymethyl)-6-methylpyridin-3-yl)methoxy)(phenoxy)phosphorylamino)propanoate] the P5P formed was 0.15 µM and the “relative P5P formed” value was 2.6%. `Cc1ncc(COP(=O)(N[C@@H](C)C(=O)OC(C)C)Oc2ccccc2)c(CO)c1O` (stereo partly drawn) [Compound 15ii, (S)-Isopropyl 2-((R)-((5-hydroxy-4-(hydroxymethyl)-6-methylpyridin-3-yl)methoxy)(phenoxy)phosphorylamino)propanoate] was tested, and the P5P formed was 0 µM and the “relative P5P formed” value was 0.0%. For `Cc1ncc(COP(=O)(N[C@@H](C)C(=O)OC(C)C)Oc2ccc(Cl)c(Cl)c2)c(CO)c1O` (stereo partly drawn) [Compound 15iii, (2S)-Isopropyl 2-((3,4-dichlorophenoxy)((5-hydroxy-4-(hydroxymethyl)-6-methylpyridin-3-yl)methoxy)phosphorylamino)propanoate], the P5P formed was 0.4 µM and the “relative P5P formed” value was 7.4%. For `Cc1ncc(COP(=O)(N[C@@H](C)C(=O)Oc2ccc3ccccc3c2)Oc2ccccc2)c(CO)c1O` (stereo partly drawn) [Compound 15iv, (2S)-Naphthalen-2-yl 2-(((5-hydroxy-4-(hydroxymethyl)-6-methylpyridin-3-yl)methoxy)(phenoxy)phosphorylamino)propanoate], the P5P formed was 0.65 µM and the “relative P5P formed” value was 6.2%. In the case of `COC(=O)[C@H](C)NP(=O)(OCc1cnc(C)c(O)c1CO)Oc1ccccc1` (stereo partly drawn) [Compound 15vi, (2S)-Methyl 2-(((5-hydroxy-4-(hydroxymethyl)-6-methylpyridin-3-yl)methoxy)(phenoxy)phosphorylamino)propanoate], the P5P formed is reported as 0 µM and the “relative P5P formed” value is reported as 0.0%. For `Cc1ncc(COP(=O)(N[C@@H](C)C(=O)OCC2CCCC2)Oc2ccccc2)c(CO)c1O` (stereo partly drawn) [Compound 15vii, (2S)-Cyclopentylmethyl 2-(((5-hydroxy-4-(hydroxymethyl)-6-methylpyridin-3-yl)methoxy)(phenoxy)phosphorylamino)propanoate], the P5P formed was 0 µM and the “relative P5P formed” value was 0.0%. In the case of `Cc1ncc(COP(=O)(N[C@@H](C)C(=O)OC(C)C)Oc2cccc3ccccc23)c(CO)c1O` (stereo partly drawn) [Compound 15x, (2S)-Isopropyl 2-(((5-hydroxy-4-(hydroxymethyl)-6-methylpyridin-3-yl)methoxy)(naphthalen-1-yloxy)phosphorylamino)propanoate], the P5P formed is reported as 0 µM and the “relative P5P formed” value is reported as 0.0%. In the case of `Cc1ncc(COP(=O)(N[C@@H](C)C(=O)OCc2ccccc2)Oc2ccccc2)c(CO)c1O` (stereo partly drawn) [Compound 15xi, (2S)-Benzyl 2-(((5-hydroxy-4-(hydroxymethyl)-6-methylpyridin-3-yl)methoxy)(phenoxy)phosphorylamino)propanoate], the P5P formed is reported as 1.1 µM and the “relative P5P formed” value is reported as 10.5%. `Cc1ncc(COP(=O)(N[C@H](C(=O)OC(C)C)C2CCCC2)Oc2ccccc2)c(CO)c1O` (stereo partly drawn) [Compound 15xii, (2S)-Isopropyl 2-cyclopentyl-2-(((5-hydroxy-4-(hydroxymethyl)-6-methylpyridin-3-yl)methoxy)(phenoxy)phosphorylamino)acetate] was tested, and the P5P formed was 0.2 µM and the “relative P5P formed” value was 7.4%. For `Cc1ncc(COP(=O)(N[C@@H](CC(C)C)C(=O)OC(C)C)Oc2ccccc2)c(CO)c1O` (stereo partly drawn) [Compound 15xiii, (2S)-Isopropyl 2-(((5-hydroxy-4-(hydroxymethyl)-6-methylpyridin-3-yl)methoxy)(phenoxy)phosphorylamino)-4-methylpentanoate], the P5P formed was 0.8 µM and the “relative P5P formed” value was 15.7%. In the case of `Cc1ncc(COP(=O)(NC(CC(F)(F)F)C(=O)OC(C)C)Oc2ccccc2)c(CO)c1O` (stereo not shown) [Compound 15xiv, Isopropyl 4,4,4-trifluoro-2-(((5-hydroxy-4-(hydroxymethyl)-6-methylpyridin-3-yl)methoxy)(phenoxy)phosphorylamino)butanoate], the P5P formed is reported as 0.1 µM and the “relative P5P formed” value is reported as 2.6%. In the case of `[2H]c1c([2H])c([2H])c(OP(=O)(N[C@@H](C)C(=O)OC(C)C)OCc2cnc(C)c(O)c2CO)c([2H])c1[2H]` (stereo partly shown) [Compound 15xix], the P5P formed is reported as 0.4 µM and the “relative P5P formed” value is reported as 7.4%.
